Structures are written as SMILES. Where a name gives a salt, the structure may show the parent alone.

One test addresses T1, β2 receptor (Homo sapiens, UniProt P07550).
T1 construct: endogenous in cells; host or cells: H292 cells
Put plainly: Adrenergic β2 mediated cAMP production in H292 cells (AlphaScreen cAMP detection). The class given is cell-based. The conditions noted are these: for EC50: cAMP, test compounds incubated 10 minutes, 300 μM rolipram; for Intrinsic Activity: fraction relative to the maximum activity determined for formoterol, 10 minutes incubation. As to the method: H292 cells were grown in RPMI (Roswell Park Memorial Institute) medium containing, 10% (v/v) FBS (foetal bovine serum) and 2 mM L-glutamine. Cells were grown in 225 cm2 flasks containing 25 mL media in a humidified incubator at 37° C., 5% CO2. Cells were harvested from the flask and passaged at a 1 in 10 dilution once per week.
The media from flasks containing H292 cells was removed, rinsed with 10 mL PBS (phosphate buffered saline) and replaced with 10 mL Accutase™ cell detachment solution. Flasks were incubated for 15 minutes in a humidified incubator at 37° C., 5% CO2. The cell suspension was counted and the cells re-suspended in RPMI media (containing 10% (v/v) FBS and 2 mM L-glutamine) at 0.05×10^6 cells per mL. 5000 cells in 100 μL were added to each well of a tissue-culture-treated 96-well plate and the cells incubated overnight in a humidified incubator at 37° C., 5% CO2. The culture media was removed, washed twice with 100 μL assay buffer and replaced with 50 μL assay buffer. Cells were rested at room temperature for 20 minutes after which time 25 μL of rolipram (1.2 mM made up in assay buffer containing 2.4% (v/v) dimethylsulphoxide) was added. Cells were incubated with rolipram for 10 minutes after which time test compounds (made up as ×4 concentrated stocks in assay buffer containing 4% (v/v) dimethylsulphoxide) were added and the cells were incubated for 10 minutes at room temperature. Final rolipram concentration in the assay was 300 μM and final vehicle concentration was 1.6% (v/v) dimethylsulphoxide. The reaction was stopped by removing supernatants, washing once with 100 μL assay buffer and replacing with 50 μL lysis buffer. The cell monolayer was frozen at −80° C. for 30 minutes (or overnight).
(§1) The concentration of cAMP (cyclic adenosine monophosphate) in the cell lysate was determined using the AlphaScreen™ methodology. The frozen cell plate was thawed for 20 minutes on a plate shaker then 10 μL of the cell lysate was transferred to a 96-well white plate. 40 μL of mixed AlphaScreen™ detection beads (containing equal volumes of donor beads (pre-incubated with biotinylated cAMP in the dark for 30 minutes) and acceptor beads), was added to each well and the plate incubated at room temperature for 10 hours in the dark. The AlphaScreen™ signal was measured using an EnVision spectrophotometer (Perkin-Elmer Inc.) with the recommended manufacturer's settings. cAMP concentrations were determined by reference to a calibration curve determined in the same experiment using standard cAMP concentrations (made up in lysis buffer in a 96-well tissue-culture-treated plate and frozen/thawed alongside the test samples) and detected using the same protocol. Concentration response curves for agonists were constructed to determine both the pEC50 and Intrinsic Activity.
Background: Changes in cAMP serve as a functional read-out for many G protein-coupled receptors.

For the next test, the target named is T2, Adrenergic β2 (Homo sapiens, UniProt P07550).
T2 construct: endogenous in cells; host or cells: H292 cells
Put plainly: Alternative Adrenergic β2 Mediated cAMP Production in H292 cells (AlphaScreen cAMP detection). The class given is cell-based. The conditions noted are these: for EC50: cAMP, test compounds incubated 60 minutes, 300 μM rolipram, read-out: β2 pEC50 (converted); for β2 Int Act: fraction relative to the maximum activity determined for formoterol, 60 minutes incubation. As to the method: H292 cells were grown in 225 cm2 flasks incubator at 37° C., 5% CO2 in RPMI medium containing, 10% (v/v) FBS (foetal bovine serum) and 2 mM L-glutamine.
Adherent H292 cells were removed from tissue culture flasks by treatment with Accutase™ cell detachment solution for 15 minutes. Flasks were incubated for 15 minutes in a humidified incubator at 37° C., 5% CO2. Detached cells were re-suspended in RPMI media (containing 10% (v/v) FBS and 2 mM L-glutamine) at 0.05×10^6 cells per mL. 5000 cells in 100 μL were added to each well of a tissue-culture-treated 96-well plate and the cells incubated overnight in a humidified incubator at 37° C., 5% CO2. The culture media was removed and cells were washed twice with 100 μL assay buffer and replaced with 50 μL assay buffer (HBSS solution containing 10 mM HEPES pH7.4 and 5 mM glucose). […] Cells were incubated with rolipram for 10 minutes after which time test compounds were added and the cells were incubated for 60 minutes at room temperature. […] The reaction was stopped by removing supernatants, washing once with 100 μL assay buffer and replacing with 50 μL lysis buffer. The cell monolayer was frozen at −80° C. for 30 minutes (or overnight).
as §1, with “using” for “using the”, “pre-incubated” for “(containing equal volumes of donor beads (pre-incubated”, “cAMP,” for “cAMP in the dark for 30 minutes) and acceptor beads),”, “concentrations.” for “concentrations (made up in lysis buffer in a 96-well tissue-culture-treated plate and frozen/thawed alongside the test samples) and detected using the same protocol.”, “constructed and data was fitted to a four parameter logistic equation” for “constructed”
A general note: In Alpha technology, singlet oxygen from a donor bead excites a nearby acceptor bead.

Test [1] has as its target T3, recombinant human Dopamine Subtype D2s receptors (Homo sapiens, UniProt P14416).
T3 construct: purchased Perkin Elmer
Put plainly: Dopamine D2 selectivity assay, inhibition of [3H]-spiperone binding. The following applies: membranes, [3H]-spiperone 0.16 nM; read-out: D2 bind pIC50 (converted). The protocol:
Membranes containing recombinant human Dopamine Subtype D2s receptors were obtained from Perkin Elmer. These were diluted in Assay Buffer ([…] HEPES, 1 mM EDTA, 120 mM NaCl, 0.1% gelatin, pH 7.4) to provide a final concentration of membranes that gave a clear window between maximum and minimum specific binding.
Assays were performed in U-bottomed 96-well polypropylene plates. […] For each assay plate 8 replicates were obtained for [^3H]-spiperone binding in the presence of 30 μL vehicle (10% (v/v) DMSO in Assay Buffer; defining maximum binding) or 30 μL Haloperidol (10 μM final concentration; defining non-specific binding (NSB)). Membranes were then added to achieve a final volume of 300 μL. The plates were incubated for 2 hours at room temperature and then filtered onto PEI coated GF/B filter plates, pre-soaked for 1 hour in Assay Buffer, using a 96-well plate Tomtec cell harvester. Five washes with 250 μL wash buffer (50 mM HEPES, 1 mM EDTA, 120 mM NaCl, pH 7.4) were performed at 4° C. to remove unbound radioactivity. The plates were dried then sealed from underneath using Packard plate sealers and MicroScint-O (50 μL) was added to each well. The plates were sealed (TopSeal A) and filter-bound radioactivity was measured with a scintillation counter (TopCount, Packard BioScience) using a 3-minute counting protocol. Total specific binding (B0) was determined by subtracting the mean NSB from the mean maximum binding. NSB values were also subtracted from values from all other wells.

The target of test [2] is T4, recombinant human adrenergic beta 1 receptors (Homo sapiens, UniProt P08588).
T4 construct: purchased Euroscreen
The test is described as follows: Adrenergic β1 selectivity assay, inhibition of [125I]-Iodocyanopindolol binding. The following applies: membranes, [125I]-Iodocyanopindolol; read-out: β1 bind pIC50 (converted). As to the method:
Membranes containing recombinant human adrenergic beta 1 receptors were obtained from Euroscreen. These were diluted in Assay Buffer (50 mM HEPES, 1 mM EDTA, 120 mM NaCl, 0.1% gelatin, pH 7.4) to provide a final concentration of membranes that gave a clear window between maximum and minimum specific binding.
Assays were performed in U-bottomed 96-well polypropylene plates. […] Membranes were then added to achieve a final volume of 100 μL. The plates were incubated for 2 hours at room temperature and then filtered onto PEI coated GF/B filter plates, pre-soaked for 1 hour in Assay Buffer, using a 96-well plate Tomtec cell harvester. Five washes with 250 μL wash buffer (50 mM HEPES, 1 mM EDTA, 120 mM NaCl, pH 7.4) were performed at 4° C. to remove unbound radioactivity. The plates were dried then sealed from underneath using Packard plate sealers and MicroScint-O (50 μL) was added to each well. The plates were sealed (TopSeal A) and filter-bound radioactivity was measured with a scintillation counter (TopCount, Packard BioScience) using a 3-minute counting protocol.
(§2) Total specific binding (B0) was determined by subtracting the mean NSB from the mean maximum binding. NSB values were also subtracted from values from all other wells.

In test [3] the target is T5, recombinant human α1D receptor (Homo sapiens, UniProt P25100).
T5 construct: expressed in transfected cells; host or cells: HEK293
T5 sequence (P25100 1-572): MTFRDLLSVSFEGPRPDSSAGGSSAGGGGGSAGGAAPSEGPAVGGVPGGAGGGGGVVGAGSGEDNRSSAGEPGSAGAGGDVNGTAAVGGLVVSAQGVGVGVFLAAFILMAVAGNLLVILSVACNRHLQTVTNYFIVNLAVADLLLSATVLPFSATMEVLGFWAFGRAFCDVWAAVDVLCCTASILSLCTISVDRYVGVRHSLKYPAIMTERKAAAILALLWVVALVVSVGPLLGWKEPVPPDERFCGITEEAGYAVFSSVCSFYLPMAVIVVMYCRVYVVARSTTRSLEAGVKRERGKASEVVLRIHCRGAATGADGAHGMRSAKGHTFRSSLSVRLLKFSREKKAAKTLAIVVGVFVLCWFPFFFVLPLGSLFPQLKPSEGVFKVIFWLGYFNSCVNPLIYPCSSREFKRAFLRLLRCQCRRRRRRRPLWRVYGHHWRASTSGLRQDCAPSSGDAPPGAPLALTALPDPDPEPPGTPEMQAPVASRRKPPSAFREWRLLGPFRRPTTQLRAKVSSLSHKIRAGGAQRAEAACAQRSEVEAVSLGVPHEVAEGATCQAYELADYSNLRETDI
Put plainly: Adrenergic α1D selectivity assay, inhibition of [3H]-prazosin binding. The conditions noted are these: HEK293 membranes, [3H]-prazosin 0.3 nM; read-out: α1 bind pIC50 (converted). The protocol: Membranes were prepared from human embryonic kidney 293 (HEK293) cells expressing recombinant human α1D receptor. These were diluted in Assay Buffer (50 mM HEPES, 1 mM EDTA, 0.1% gelatin, pH 7.4) to provide a final concentration of membranes that gave a clear window between maximum and minimum specific binding.
Assays were performed in U-bottomed 96-well polypropylene plates. 10 μL [^3H]-prazosin (0.3 nM final concentration) and 10 μL of test compound (10× final concentration) were added to each test well. For each assay plate 8 replicates were obtained for [^3H]-prazosin binding in the presence of 10 μL vehicle (10% (v/v) DMSO in Assay Buffer; defining maximum binding) or 10 μL BMY7378 (10 μM final concentration; defining non-specific binding (NSB)). Membranes were then added to achieve a final volume of 100 μL. The plates were incubated for 2 hours at room temperature and then filtered onto PEI coated GF/B filter plates, pre-soaked for 1 hour in Assay Buffer, using a 96-well plate Tomtec cell harvester. Five washes with 250 μL wash buffer (50 mM HEPES, 1 mM EDTA, pH 7.4) were performed at 4° C. to remove unbound radioactivity. The plates were dried then sealed from underneath using Packard plate sealers and MicroScint-O (50 μL) was added to each well. The plates were sealed (TopSeal A) and filter-bound radioactivity was measured with a scintillation counter (TopCount, Packard BioScience) using a 3-minute counting protocol.
as §2

T2 sequence (P07550 whole entry): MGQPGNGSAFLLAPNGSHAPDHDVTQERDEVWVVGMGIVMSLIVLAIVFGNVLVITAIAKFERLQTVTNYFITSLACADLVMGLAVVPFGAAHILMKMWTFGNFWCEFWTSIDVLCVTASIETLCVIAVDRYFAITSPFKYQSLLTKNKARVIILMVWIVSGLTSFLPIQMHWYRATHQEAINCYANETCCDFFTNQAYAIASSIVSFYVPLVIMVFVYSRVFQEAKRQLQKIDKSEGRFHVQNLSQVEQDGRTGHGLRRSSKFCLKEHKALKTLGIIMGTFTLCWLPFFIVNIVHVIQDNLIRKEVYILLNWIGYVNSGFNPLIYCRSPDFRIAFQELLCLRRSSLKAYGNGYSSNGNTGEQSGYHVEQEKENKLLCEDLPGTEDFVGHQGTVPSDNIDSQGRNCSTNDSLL
T1 sequence (P07550 whole entry): as above
T3 sequence (P14416 1-414 isoform P14416-2): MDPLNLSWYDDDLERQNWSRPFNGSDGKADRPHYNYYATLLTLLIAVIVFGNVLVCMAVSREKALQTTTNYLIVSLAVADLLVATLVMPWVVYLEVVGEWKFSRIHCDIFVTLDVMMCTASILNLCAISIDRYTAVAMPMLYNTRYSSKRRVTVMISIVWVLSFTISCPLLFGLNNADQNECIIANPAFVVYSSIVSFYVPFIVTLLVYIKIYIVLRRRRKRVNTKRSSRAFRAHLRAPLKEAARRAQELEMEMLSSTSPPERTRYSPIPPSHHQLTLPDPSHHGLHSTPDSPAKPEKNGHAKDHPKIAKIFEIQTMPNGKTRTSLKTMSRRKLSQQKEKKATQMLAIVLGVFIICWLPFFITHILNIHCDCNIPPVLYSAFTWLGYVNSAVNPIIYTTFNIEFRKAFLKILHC
T4 sequence (P08588 whole entry): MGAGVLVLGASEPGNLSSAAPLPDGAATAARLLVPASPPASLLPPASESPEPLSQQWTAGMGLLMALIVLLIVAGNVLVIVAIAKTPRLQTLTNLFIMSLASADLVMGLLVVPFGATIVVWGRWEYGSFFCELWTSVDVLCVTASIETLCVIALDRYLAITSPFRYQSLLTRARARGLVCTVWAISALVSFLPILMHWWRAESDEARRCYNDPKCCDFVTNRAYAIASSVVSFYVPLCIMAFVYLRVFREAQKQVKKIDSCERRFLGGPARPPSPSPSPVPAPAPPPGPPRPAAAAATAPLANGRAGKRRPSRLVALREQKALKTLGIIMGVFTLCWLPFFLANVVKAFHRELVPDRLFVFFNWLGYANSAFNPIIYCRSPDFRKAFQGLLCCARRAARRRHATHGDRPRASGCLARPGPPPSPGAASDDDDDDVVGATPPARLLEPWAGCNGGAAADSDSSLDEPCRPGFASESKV

As for `Cl.O=c1[nH]c2c(O)ccc([C@@H](O)CNCCCSCCCOCCc3ccc(Br)cc3)c2s1` [Example 5, 7-((1R)-2-{[3-({3-[2-(4-Bromophenyl)ethoxy]propyl}thio)propyl]amino}-1-hydroxyethyl)-4-hydroxy-1,3-benzothiazol-2(3-H)-one hydrochloride], at β2 receptor, the EC50 is 0.0631 nM and the “Intrinsic Activity” value was found to be 0.7. In addition, on Adrenergic β2, the EC50 is 0.0501 nM and the “β2 Int Act” value is given as 0.9.

Take `Cl.O=c1[nH]c2c(O)ccc([C@@H](O)CNCCSCCCOCCc3ccccc3)c2s1` [Example 8, 4-Hydroxy-7-{(1R)-1-hydroxy-2-[(2-{[3-(2-phenylethoxy)propyl]thio}-ethyl)amino]ethyl}-1,3-benzothiazol-2(3H)-one hydrochloride]: the “Intrinsic Activity” value on β2 receptor is on record as 1.0. The IC50 in test [1] is 1000 nM. Moreover, the “β2 Int Act” value at Adrenergic β2 is 1.

Turning to `CN(CCCSCCNC[C@H](O)c1ccc(O)c2[nH]c(=O)sc12)CCc1ccccc1` [Example 12, 4-Hydroxy-7-((1R)-1-hydroxy-2-{[2-({3-[methyl(2-phenylethyl)amino]propyl}-thio)ethyl]amino}ethyl)-1,3-benzothiazol-2(3H)-one trifluoroacetate], on β2 receptor, the EC50 was 5.01 nM and the “Intrinsic Activity” value is listed as 0.8. On Adrenergic β2, the EC50 was 3.16 nM and the “β2 Int Act” value came out at 1.

As for `C[C@H](CNCCCSCCNC[C@H](O)c1ccc(O)c2[nH]c(=O)sc12)c1ccccc1` [Example 48, (S)-(−)-7-[(1R)-2-({2-[(3-{[2-(phenyl)propyl]amino}propyl)thio]ethyl}amino)-1-hydroxyethyl]-4-hydroxy-1,3-benzothiazol-2(3H)-one dihydrochloride], the values for the IC50 in test [1], in test [2] and in test [3] were 3980 nM, 158 nM and 1580 nM, respectively. For the same compound, the EC50 on Adrenergic β2 was 1.26 nM. Besides, the “β2 Int Act” value on Adrenergic β2 stood at 0.9.

These data come from US20090221653A1, “7-(2-amino-1-hydroxy-ethyl)-4-hydroxybenzothiazol-2(3H)-one-derivatives as beta2 adrenoreceptor agonists” (AstraZeneca AB, priority 2005, published 2009).
